# From paper PMC5242521 (PLoS ONE, 2017)
# Values joined by “and” are separate entries in the source; they are usually repeats but may differ in a detail not shown here. Identical values can stand only once. “Also recorded” adds a separate entry of the source.
# Tests used:
# P-gp [1] = target: P-gp (Homo sapiens, UniProt P08183); experiment: P-gp activity: rhodamine 123 accumulation in MCF7R cells; details: pyrethroid 100 μM
# Description: (§1) The effects of pyrethroids on activity of ABC and SLC transporters were determined through measuring cellular accumulation or retention of fluorescent or radiolabeled reference substrates for transporters, in the presence or absence of reference inhibitors, as previously described. The nature of cells and reference substrates and inhibitors used for transport assays are summarized in S3 Table.
# For accumulation assays (performed for all transporters, excepted BCRP), transporter-expressing cells usually cultured in 48-well plates were first incubated at 37°C with reference substrates in the absence (control) or presence of pyrethroids or reference inhibitors, in a well-defined transport assay medium, consisting of 136 mM NaCl, 5.3 mM KCl, 1.1mM KH2PO4, 0.8 mM MgSO4, 1.8 mM CaCl2, 10 mM HEPES, 11 mM D-glucose and adjusted to pH = 7.4 (excepted for MATE transporter assays, for which pH was set to 8.4). The nature of substrates and reference inhibitors and the incubation times with substrates, that varied according to the transporter, were selected in agreement with previous studies and are indicated in S3 Table. The total incubation volume with substrates was 200 μL/well. After washing twice in phosphate-buffered saline (PBS) (200 μL/well/washing), cells were lysed in distilled water (155 μL/well). An aliquot of cell lysate (5 μL) was then taken for determining cellular protein content by the Bradford method. The rest of lysate (150 μL/well) was used for measuring intracellular accumulation of reference substrates by scintillation counting or spectrofluorimetry using a SpectraMax Gemini SX spectrofluorometer (Molecular Devices, Sunnyvale, CA, USA) (excitation and emission wavelengths were 485 and 535 nm, respectively, for rhodamine 123 and fluorescein, and 355 and 460 nm, respectively, for DAPI).
# (§2) Intracellular concentrations of reference substrates were initially expressed as fluorescence arbitrary units (for fluorescent dye substrates) or as moles (for radiolabeled substrates) and normalized to cellular protein content, determined by the Bradford method. They were finally used for calculating percentage of transporter activity, according to the following equations [41, 45]: %ABCtransporter activity=([Substrateref inh]-[Substratepyrethroid])×100/([Substrateref inh]-[Substratecontrol]) (1) %SLC transporter activity=([Substratepyrethroid]-[Substratref inh])×100/([Substratecontrol]-[Substrateref inh]) (2) with [Substratepyrethroid] = cellular concentration of reference substrate in the presence of pyrethroid, [Substrateref inh] = cellular concentration of reference substrate in the presence of reference inhibitor and [Substratecontrol] = cellular concentration of reference substrate in control cells not exposed to pyrethroid or reference inhibitor.
# (§3) The initial tested concentration of pyrethroids was 100 μM. […] Such concentrations were calculated using GraphPad Prism software (GraphPad Software, La Jolla, CA), through nonlinear regression based on the four parameter logistic function using the following equations: […]
# BCRP = target: T1, BCRP (Homo sapiens, UniProt Q9UNQ0); experiment: BCRP activity: Hoechst 33342 retention in HEK-BCRP cells; type: cell-based; details: pyrethroid 100 μM
# T1 construct: expressed in transfected cells; host or cells: HEK293
# T1 sequence (Q9UNQ0 1-655): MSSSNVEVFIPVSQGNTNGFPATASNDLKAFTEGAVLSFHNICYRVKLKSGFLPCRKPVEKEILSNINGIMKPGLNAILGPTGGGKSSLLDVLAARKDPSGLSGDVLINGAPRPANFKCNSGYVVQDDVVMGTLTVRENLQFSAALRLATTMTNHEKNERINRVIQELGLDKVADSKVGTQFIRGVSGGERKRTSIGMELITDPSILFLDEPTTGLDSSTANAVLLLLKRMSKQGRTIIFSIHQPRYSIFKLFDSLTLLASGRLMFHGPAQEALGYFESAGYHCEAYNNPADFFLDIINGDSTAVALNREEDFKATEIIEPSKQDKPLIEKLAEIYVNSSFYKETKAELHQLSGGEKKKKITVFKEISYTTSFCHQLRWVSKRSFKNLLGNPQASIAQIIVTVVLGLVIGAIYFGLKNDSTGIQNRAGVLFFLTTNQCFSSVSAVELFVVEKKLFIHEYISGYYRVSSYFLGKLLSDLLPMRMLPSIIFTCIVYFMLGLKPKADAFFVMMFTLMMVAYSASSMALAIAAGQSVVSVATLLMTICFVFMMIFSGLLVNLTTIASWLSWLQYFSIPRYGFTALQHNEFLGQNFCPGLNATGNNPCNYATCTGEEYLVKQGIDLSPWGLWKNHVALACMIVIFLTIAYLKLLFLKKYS
# Description: For retention assay (used for BCRP activity), HEK-BCRP cells cultured in 48-well plates were first loaded at 37°C with transport assay (200 μL/well) containing 16.2 μM Hoechst 33342 for 30 min. After washing twice in PBS (200 μL/well/washing), cells were reincubated in Hoechst 33342-free transport assay medium (200 μL/well) at 37°C for 90 min in the absence or presence of pyrethroids or of the BCRP reference inhibitor fumitremorgin C used at 10 μM. Cells were next lysed in distilled water (155 μL/well) after washing twice in PBS (200 μL/well/washing). The cell lysate was finally used for determining cellular protein content and intracellular retention of Hoechst 33342 (by spectrofluorimetry: excitation and emission wavelengths were 355 and 460 nm, respectively), as described above.
# (§4) The initial tested concentration of pyrethroids was 100 μM.
# [2] = set-up: method as in PMID 12708229; details: human subjects environmentally exposed; ref [70]; cited from earlier work
# P-gp [3] = details: ref [26], [27]; cited from earlier work
# BCRP ATPase activity = details: ref [28]; cited from earlier work
# OATP1B1 = target: T2, OATP1B1 (Homo sapiens, UniProt Q9Y6L6); experiment: OATP1B1 activity: E3S accumulation in CHO-OATP1B1 cells; type: cell-based; details: pyrethroid 100 μM; CHO-OATP1B1 cells, E3S
# T2 construct: expressed in transfected cells; host or cells: CHO
# T2 sequence (Q9Y6L6 1-691): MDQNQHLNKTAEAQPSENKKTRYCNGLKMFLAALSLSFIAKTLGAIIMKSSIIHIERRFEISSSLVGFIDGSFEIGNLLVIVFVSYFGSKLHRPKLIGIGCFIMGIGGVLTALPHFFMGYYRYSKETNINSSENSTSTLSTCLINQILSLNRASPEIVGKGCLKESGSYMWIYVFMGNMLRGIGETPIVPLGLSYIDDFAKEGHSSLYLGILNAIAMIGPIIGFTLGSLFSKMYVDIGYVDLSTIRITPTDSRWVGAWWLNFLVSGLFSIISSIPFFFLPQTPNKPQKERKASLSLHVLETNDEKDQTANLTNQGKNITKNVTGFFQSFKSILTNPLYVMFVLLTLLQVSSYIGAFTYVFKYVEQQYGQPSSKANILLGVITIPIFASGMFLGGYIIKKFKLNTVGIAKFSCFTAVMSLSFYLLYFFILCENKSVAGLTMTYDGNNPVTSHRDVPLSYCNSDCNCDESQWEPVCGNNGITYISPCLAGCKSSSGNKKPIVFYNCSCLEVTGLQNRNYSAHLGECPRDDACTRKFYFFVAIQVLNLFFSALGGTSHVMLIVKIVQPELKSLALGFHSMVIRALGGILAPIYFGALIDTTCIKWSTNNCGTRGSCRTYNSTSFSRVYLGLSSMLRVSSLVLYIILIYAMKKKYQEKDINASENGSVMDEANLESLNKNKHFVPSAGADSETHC
# Description: as §4
# OCT1 = target: T3, OCT1 (Homo sapiens, UniProt O15245); experiment: OCT1 activity: DAPI accumulation in HEK-OCT1 cells; details: for inhibition at 100 μM: human, pH 7.4
# T3 sequence (O15245 1-554): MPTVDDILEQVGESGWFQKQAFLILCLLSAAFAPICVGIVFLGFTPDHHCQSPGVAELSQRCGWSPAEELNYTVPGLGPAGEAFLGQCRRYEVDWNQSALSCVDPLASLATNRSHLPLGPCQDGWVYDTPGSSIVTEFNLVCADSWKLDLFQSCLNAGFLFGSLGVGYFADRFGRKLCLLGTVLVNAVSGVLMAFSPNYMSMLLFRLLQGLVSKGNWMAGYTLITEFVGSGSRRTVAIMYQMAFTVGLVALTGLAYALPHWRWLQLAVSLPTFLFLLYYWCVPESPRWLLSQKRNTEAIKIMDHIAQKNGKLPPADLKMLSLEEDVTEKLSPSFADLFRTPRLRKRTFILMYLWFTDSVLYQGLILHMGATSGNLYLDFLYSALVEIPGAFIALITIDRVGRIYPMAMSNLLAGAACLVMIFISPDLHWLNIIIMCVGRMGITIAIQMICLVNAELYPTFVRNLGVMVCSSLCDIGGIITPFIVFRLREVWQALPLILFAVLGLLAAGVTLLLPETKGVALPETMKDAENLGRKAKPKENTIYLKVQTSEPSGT
# Description: as §1
# The nature of substrates and reference inhibitors and the incubation times with substrates, that varied according to the transporter, were selected in agreement with previous studies and are indicated in S3 Table. The total incubation volume with substrates was 200 μL/well. […] An aliquot of cell lysate (5 μL) was then taken for determining cellular protein content by the Bradford method.
# as §2, §3
# P-gp [4] = details: ref [78]; cited from earlier work
# P-gp (Homo sapiens, UniProt P08183), sequence (P08183 whole entry): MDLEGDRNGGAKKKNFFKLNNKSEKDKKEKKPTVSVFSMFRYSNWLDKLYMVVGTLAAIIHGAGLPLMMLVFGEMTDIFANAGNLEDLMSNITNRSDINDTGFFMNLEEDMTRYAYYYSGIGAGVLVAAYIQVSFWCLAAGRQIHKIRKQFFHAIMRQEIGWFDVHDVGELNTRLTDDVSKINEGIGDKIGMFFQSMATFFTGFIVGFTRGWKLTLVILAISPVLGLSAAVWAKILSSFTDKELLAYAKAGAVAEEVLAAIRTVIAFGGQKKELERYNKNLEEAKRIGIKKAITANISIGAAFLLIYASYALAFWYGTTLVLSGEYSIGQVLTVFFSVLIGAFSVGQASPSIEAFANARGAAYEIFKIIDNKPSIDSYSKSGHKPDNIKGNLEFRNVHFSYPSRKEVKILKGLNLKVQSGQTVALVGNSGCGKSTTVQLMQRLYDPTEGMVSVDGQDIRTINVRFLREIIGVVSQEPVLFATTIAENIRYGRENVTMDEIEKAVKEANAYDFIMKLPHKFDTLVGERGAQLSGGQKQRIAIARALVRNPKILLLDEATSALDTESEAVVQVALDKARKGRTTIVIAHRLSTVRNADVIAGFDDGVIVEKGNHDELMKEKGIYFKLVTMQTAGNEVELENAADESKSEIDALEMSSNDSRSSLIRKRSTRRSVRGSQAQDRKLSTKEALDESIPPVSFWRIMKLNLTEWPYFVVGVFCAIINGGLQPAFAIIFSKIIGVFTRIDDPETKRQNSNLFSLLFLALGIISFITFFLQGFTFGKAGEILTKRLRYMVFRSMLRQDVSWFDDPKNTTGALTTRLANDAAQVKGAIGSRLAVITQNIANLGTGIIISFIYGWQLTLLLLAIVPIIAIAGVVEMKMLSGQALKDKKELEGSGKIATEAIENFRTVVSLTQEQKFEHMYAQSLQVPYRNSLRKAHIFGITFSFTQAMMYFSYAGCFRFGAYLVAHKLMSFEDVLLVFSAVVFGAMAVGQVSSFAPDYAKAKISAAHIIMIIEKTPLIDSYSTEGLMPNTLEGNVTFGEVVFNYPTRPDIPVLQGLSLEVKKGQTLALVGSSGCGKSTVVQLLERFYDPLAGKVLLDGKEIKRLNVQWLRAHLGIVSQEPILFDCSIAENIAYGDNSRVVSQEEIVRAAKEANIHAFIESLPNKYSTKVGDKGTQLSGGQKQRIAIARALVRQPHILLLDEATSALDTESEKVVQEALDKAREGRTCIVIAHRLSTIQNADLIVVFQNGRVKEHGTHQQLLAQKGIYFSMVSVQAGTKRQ
Structure (SMILES),effect on P-gp activity (P-gp [1]),effect on BCRP activity (BCRP),blood concentration [2],effect on P-gp activity or ATPase activity (P-gp [3]),effect on BCRP ATPase activity (BCRP ATPase activity),inhibition of OATP1B1 activity (OATP1B1),"effect on OCT1 activity (OCT1; pyrethroid 100 μM, DAPI)",inhibition at 100 μM (OCT1),efflux by P-gp (P-gp [4])
CC1(C)C(C=C(Cl)Cl)C1C(=O)OCc1cccc(Oc2ccccc2)c1 (stereo not shown) [permethrin],did not alter,without inhibiting,< 5 μg/L and < 12.8 nM,inhibit,blocked; also recorded: inhibited,–,–,–,–
CC(C)[C@H](C(=O)O[C@H](C#N)c1cccc(Oc2ccccc2)c1)c1ccc(Cl)cc1 [esfenvalerate],did not alter,–,–,inhibit,–,less than 50%,failed to significantly alter,–,–
CC(C)=CC1C(C(=O)OCc2coc(Cc3ccccc3)c2)C1(C)C (stereo not shown) [resmethrin],–,without inhibiting,–,–,inhibited,–,–,48.8%,–
CC1(C)[C@H](C(=O)O[C@H](C#N)c2cccc(Oc3ccccc3)c2)[C@@H]1C=C(Br)Br [deltamethrin],did not inhibit,–,< 5 μg/L and < 12.8 nM,–,–,–,–,30.1 to 48.8%,not effluxed by P-gp
